Drawing on PubChem BioAssay (NCI), this text covers TGI and GI50 for 44 molecules.

What all share (assay): NCI tumour cell line growth inhibition, 48 h
Experiment [1] concerns KM20L2 colon.
Experiment [2] deals with DMS 114 small cell lung.
Experiment [3] concerns M19-MEL melanoma.
The test system of experiment [4] is RXF-631 renal.
The test system of experiment [5] is DLD-1 colon.
Experiment [6] deals with SNB-78 CNS.
The subject of experiment [7] is XF 498 CNS.
For experiment [8], the system named is HOP-18 NSCLC.
The test system of experiment [9] is MDA-N.

Structures are written as SMILES. Values joined by “and” are separate entries in the source; they are usually repeats but may differ in a detail not shown here. Identical values can stand only once.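 Method: 48-hour compound exposure of cells in 96-well plates, five concentrations, linear interpolation of endpoints. At the GI50, growth is halved. TGI marks complete inhibition of growth.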 Some results are limits rather than exact numbers.

Regarding `O=C(COC(=O)c1cccc2c(=O)c3ccccc3[nH]c12)Nc1ccc(S(=O)(=O)Nc2ncccn2)cc1`, the TGI in experiment [1] was greater than 100 µM; in experiment [2] it was greater than 100 µM; in [3] it was greater than 100 µM; in [4] it was greater than 100 µM; in experiment [5] it was greater than 100 µM; in experiment [6], 74.4 µM. The same molecule showed a TGI in experiment [7] greater than 100 µM.
In the case of `COc1ccc(/C=C2\CCc3ccccc3C2=O)cc1OC`, the TGI was greater than 100 µM in experiment [1]; 47.1 µM in [2]; greater than 100 µM in [3]; 56.4 µM in [5]; greater than 100 µM in experiment [6]; 56.5 µM in experiment [7]. This molecule also came in with a TGI in experiment [8] greater than 100 µM.
In the case of `CC(=O)OC1(C#N)CC2OC1C1N=NN(C(=O)OC(C)(C)C)C21` (stereo not drawn), the TGI is greater than 100 µM in experiment [1]; greater than 74.9 µM in experiment [2]; greater than 100 µM in experiment [3]; greater than 31.6 µM in [5]; greater than 77 µM in [6]; greater than 100 µM in experiment [7]. Moreover, the TGI in [8] was greater than 100 µM.
On to `COC(=O)c1ccc(/C=C/S(=O)(=O)c2ccccc2)cc1`, for which the TGI in [1], in experiment [2], in experiment [3], in [4], in experiment [5] and in [6] was greater than 100 µM throughout. In [7], the TGI was greater than 100 µM.
Regarding `Clc1nc(-c2ccccc2)nc(Cl)c1Cl`, in experiment [9], the TGI stood at 26.6 µM.
As to `COC(=O)C1=C(O)c2cc3c(cc2[C@H](c2cc(OC)c(OC)c(OC)c2)C1)OCO3`, the TGI in experiment [1] is greater than 100 µM; in [2], greater than 100 µM; in experiment [3], 10.1 µM; in experiment [4], greater than 100 µM; in [5] it was greater than 100 µM; in [6], greater than 100 µM. The TGI in experiment [7] and in [8] was greater than 100 µM in each case.
As to `NC(N)=NC(N)=Nc1ccc(S(N)(=O)=O)cc1`, the TGI in experiment [9] was greater than 100 µM.
In the case of `CCOc1ccc(N=Cc2ccc3ccccc3n2)cc1`, the TGI in [1], in experiment [3], in experiment [4], in experiment [5], in [6] and in [7] was greater than 100 µM throughout. In [8], this molecule showed a TGI greater than 100 µM.
As for `Cc1ccc(-c2cc(=O)c3cc(C)c(C)c(C(=O)O)c3o2)cc1[N+](=O)[O-]`, the TGI in [1], in experiment [2], in [3], in experiment [5], in experiment [6] and in experiment [8] was greater than 100 µM in each case.
In the case of `CCN(CC)CCC(=O)N1C/C(=C/c2ccccc2)C(=O)/C(=C\c2ccccc2)C1`, the TGI came to 3.5 µM in [1]; 4.54 µM in experiment [2]; 3.68 µM in [3]; 2.82 µM in experiment [5]; 7.57 µM in experiment [7]; 9.19 µM in experiment [8]. For the same molecule, in experiment [9], the TGI is 2.45 µM.
For the molecule `CCCCCCC/C=C1\CCC(CN(C)C)C1=O` (stereo not drawn), the TGI in experiment [1] was 34.6 µM; in experiment [4], greater than 71.4 µM; in experiment [5] it was 20.9 µM; in experiment [6], 35.8 µM; in [7], 35.4 µM; in experiment [8], 31.4 µM. This molecule also gave a TGI in experiment [9] of 26.8 µM.
As to `COc1ccc2c(c1OC)C(C=C(c1ccccc1)c1ccccc1)CN(C)C2` (stereo not drawn), the TGI is 35.5 µM in experiment [1]; 29.3 µM in [2]; 81 µM in experiment [3]; 66.4 µM in experiment [4]; 76.8 µM in experiment [5]; greater than 100 µM in experiment [6]. The molecule also gave a TGI in experiment [8] of 67.7 µM.
As for `Fc1ccc2c(c1)cc1ccc3cccc4ccc2c1c34`, the TGI in experiment [1], in experiment [2], in [3], in [4], in [5] and in experiment [6] was greater than 100 µM in each case. Besides, the TGI in experiment [7] and in experiment [8] was greater than 100 µM throughout.
Consider `CC(=O)Oc1cc(Cl)c(OC(C)=O)c2c(OC(C)=O)c(C)c(O[Si](C)(C)C(C)(C)C)cc12`, for which the TGI was 32.1 µM in experiment [1]; 15.1 µM in experiment [2]; 3.92 µM in experiment [5]; 9.82 µM in experiment [6]; 32.8 µM in experiment [7].
`CC(CCC(=O)O)c1ccc(Br)cc1` (stereo not drawn): the TGI in experiment [1], in experiment [2], in experiment [3], in [5], in experiment [6] and in experiment [8] was greater than 100 µM throughout.
On to `C/C(=N\NS(=O)(=O)c1c(C)cc(C)cc1C)c1ccc[n+]([O-])n1`, for which the TGI in [1] was 54.6 µM; in [2], 36.8 µM; in [3], 29 µM; in experiment [4] it was 93 µM; in [5] it was 21 µM; in [6], 68.3 µM. The molecule further showed a TGI in [8] of 47.3 µM.
Regarding `COc1ccc(C[C@H]2NC[C@H](O)[C@H]2OC(C)=O)cc1`, in [9], the TGI stood at 0.195 µM.
For `CN[C@H]1CC[C@]23C[C@]24CC[C@]2(C)[C@@H]([C@H](C)N(C)C)CC[C@@]2(C)[C@@H]4CC[C@H]3C1(C)C`, in experiment [9], the TGI came to 29.2 µM.
In [9], `N#CC(C(=O)O)C(c1c(Cl)cccc1Cl)C(C#N)C(=O)O` (stereo not drawn) displayed a TGI greater than 100 µM.
As to `[N-]=[N+]=NC1C2CC3CC(C2)CC1C3` (stereo not drawn), the TGI in experiment [1], in experiment [2], in experiment [3], in [4], in experiment [6] and in experiment [8] was greater than 100 µM throughout.
In experiment [9], `S=C1SCN(C2CCCCCCCCCCC2)CN1C1CCCCCCCCCCC1` returned a TGI greater than 100 µM.
For the molecule `OCCCCCNc1ccnc2cc(Cl)ccc12`, the TGI in experiment [1], in experiment [2], in [3], in experiment [5], in experiment [6] and in experiment [7] was greater than 100 µM each time. The TGI in experiment [8] is greater than 100 µM.
For the molecule `CC1(C)Oc2ccccc2[N+]([O-])=C1c1ccccc1`, the TGI in [1], in experiment [2], in [3], in experiment [4], in experiment [5] and in experiment [6] was greater than 100 µM throughout.
As for `Nc1nc(CC2(O)CCCCC2)cc(-c2ccccc2)n1`, the TGI in experiment [1] is greater than 53.7 µM; in experiment [2], greater than 70.6 µM; in experiment [3] it was greater than 72.8 µM; in experiment [4], greater than 100 µM; in experiment [5], greater than 100 µM; in experiment [6] it was greater than 100 µM. Further, the TGI in [8] is greater than 90 µM.
As for `CC(C)Cc1ccc(C(C)/C=C2\CCC(CN3CCCCC3)C2=O)cc1` (stereo not drawn), the TGI was 29.1 µM in experiment [1]; 4.78 µM in [2]; 6.08 µM in experiment [3]; 5.13 µM in [5]; 35.1 µM in [6]; 16 µM in experiment [7]. For the same molecule, the TGI was determined as 30.6 µM in experiment [8] and 12.8 µM in [9].
In turn, `CNC(=S)N(C1CCCCC1)C1CCCCC1` returned a TGI in [9] greater than 100 µM.
Turning to `COc1c(Cl)[c]([Hg][O]C(C)=O)c(NCC(C)=O)c(OC)[c]1[Hg][O]C(C)=O`, the GI50 was 28.3 µM in experiment [1]; 4.12 µM in [2]; 14.8 µM in experiment [3]; 1.22 µM in experiment [4]; 12.2 µM in [5]; 15.9 µM in experiment [6]. The TGI in experiment [1] was greater than 100 µM; in experiment [2], 26.9 µM; in experiment [3], 30.1 µM; in [4], 3.88 µM; in [5], 26.8 µM; in experiment [6], 43.2 µM.
For the molecule `CCC(C)(C)NS(=O)(=O)c1ccccc1`, the TGI in [1], in experiment [2], in experiment [3], in experiment [5], in experiment [6] and in experiment [7] was greater than 100 µM throughout.
In the case of `COc1cc(=O)oc(/C=C/C=C/C=C/C(C)=C\C2(C)OC(C)C(C)(O)C2O)c1C` (stereo not drawn), the TGI in experiment [9] is greater than 100 µM.
On to `N.N.NCCCCCN.O=C([O-])CC(=O)[O-].O=C([O-])CC(=O)[O-].[Pt+4].[Pt+4]`, for which the GI50 in [1], in experiment [5] and in experiment [8] was greater than 100 µM throughout. Further, the TGI in experiment [1], in experiment [5] and in [8] was greater than 100 µM throughout.
Consider `CCOC(=O)NC(=O)c1cn(C2OC(COC(=O)CCCCCCCCC(=O)OCC3OC(n4cc(C(=O)NC(=O)OCC)c(=O)[nH]c4=O)C4OC(C)(C)OC34)C3OC(C)(C)OC32)c(=O)[nH]c1=O` (stereo not drawn), for which the TGI in experiment [1] is greater than 100 µM; in experiment [2], greater than 100 µM; in experiment [3], 86.2 µM; in experiment [4], greater than 100 µM; in experiment [5] it was greater than 100 µM; in experiment [6], greater than 100 µM. For the same molecule, the TGI in experiment [7] and in experiment [8] was greater than 100 µM each time.
Regarding `CCC1(N)C(=O)OCc2c1cc1n(c2=O)Cc2cc3ccccc3nc2-1` (stereo not drawn), in experiment [9], the GI50 was 21.8 µM and the TGI is greater than 100 µM.
For the molecule `CCN(CC)/[N+]([O-])=N/OCC(C)O` (stereo not drawn), the TGI in experiment [2], in experiment [3], in experiment [4], in [6] and in experiment [7] was greater than 100 µM in each case.
As to `COc1cc2ccc3c4cc(OC)c(OC(C)C)cc4c[n+](C)c3c2cc1OC`, the TGI in experiment [1] was greater than 100 µM; in experiment [2], 41.4 µM; in experiment [3], greater than 100 µM; in [5], greater than 100 µM; in [8] it was 88.6 µM.
In turn, `CC1(C)OC2COC(c3[nH]nc4c(=O)[nH]c(=O)[nH]c34)C2O1` (stereo not drawn) gave a TGI in experiment [9] greater than 100 µM.
The same measure, in the same setting: the figure for `C[C@H](C(O)CC(=O)C(C)(C)O)[C@H]1CC[C@@]2(C)[C@@H]3CC[C@H]4C(C)(C)[C@@H](OC5OC(COC6OC(CO)C(O)C(O)C6O)C(O)C(O)C5O)CC[C@]4(C)C3=CC[C@]12C` (stereo partly drawn) is greater than 100 µM.
The same measure, in the same setting: the figure for `O=C(O)CNC(=O)C1NC(C(F)(F)F)(C(F)(F)F)OC1(C(F)(F)F)C(F)(F)F` (stereo not drawn) is greater than 100 µM.
Consider `Cc1nc(-n2nc(-c3ccccc3)cc2-c2ccccc2)sc1C(=O)/C=C/c1ccc(Cl)cc1`, for which the TGI is 77.6 µM in experiment [1]; 28.3 µM in [2]; 39.6 µM in experiment [3]; 26.8 µM in experiment [5]; greater than 100 µM in experiment [6]; 29.6 µM in [8].
Regarding `Clc1ccc(COC(Cn2ccnc2)c2ccc(Cl)cc2Cl)c(Cl)c1` (stereo not drawn), the TGI in experiment [9] was 17.5 µM and 15.6 µM.
Take `COc1cc(/C=C2\Cc3ccccc3C2=O)cc(OC)c1OC`: the TGI in [1], in experiment [2], in experiment [3], in experiment [4], in [5] and in [6] was greater than 100 µM in each case. In addition, the TGI in [7] and in [8] was greater than 100 µM throughout.
As for `CCC(=O)Nc1ncnc2ncn(C(=O)CC)c12`, the TGI in experiment [9] is greater than 100 µM.
Regarding `CCCCCCC(O)C(O)CCC(O)C1CCC(CCCCC(O)CC2=CC(C)OC2=O)O1` (stereo not drawn), in experiment [9], the GI50 was 12.3 µM and the TGI is 29.1 µM.
As to `O=C(CC1SC(=Nc2ccccc2Cl)NC1=O)Nc1ccc(Cl)cc1` (stereo not drawn), the TGI in [1], in [2], in experiment [3], in experiment [5] and in [6] was greater than 100 µM throughout.
Consider `C/C=C(\C)C(=O)N1c2ccccc2CC1c1c(C)[nH]c2ccccc12` (stereo not drawn), for which the TGI in [1], in [3], in [4], in experiment [5] and in experiment [6] was greater than 100 µM each time.
